The values that follow come from US9255279B2, “Anaplastic lymphoma kinase (ALK) as an oncogene capable of transforming normal human cells” (The Trustees of the University of Pennsylvania, priority 2013, dated 2016).

Experiment [1] has as its target T1, NPM-ALK (Homo sapiens, UniProt Q9UM73). The experiment is described as follows: Phosphorylation of ALK and its targets in NPM-ALK-transfected HEK cells. The following applies: higher dose of inhibitor needed, FIG. 10. The experiment is classed as cell-based. On the set-up: expressed in transfected cells; the other entry of the earlier key: NPM1 (P06748, Nucleophosmin). The procedure:
(§1) These experiments were performed using antibodies against phosphorylated (p)-ALK, p-STAT3, p-S6RP, total S6RP (Cell Signaling Technology), total NPM-ALK (Pharmigen, San Diego, Calif.), and total STAT3 and actin (ACTB), both from Santa Cruz Biotechnology (Santa Cruz, Calif.), according to the standard protocols.

Experiment [2] has as its system NPM-ALK-transformed CD4+ T cells. Kind of experiment: Cell growth of NPM-ALK-transformed CD4+ T cells. Conditions: FIG. 3E and FIG. 12A. The class given is cell-based, human. The procedure:
The cells suspended at 2×10^4/well were incubated at 37° C. in microtiter plates for up to two days, then incubated with MTT (Promega Madison, […].) for 4 hours. Well contents were solubilized overnight in the medium containing 10% SDS and 0.01M HCL. Absorbance at 570 nm in each well was measured using a Titertek Multiskan reader (Thermo Fisher Scientific).
The assay was performed using a cell-proliferation enzyme linked immunosorbent assay (ELISA; Roche Diagnostics, Indianapolis, Ind.) according to the manufacturer's protocol. In brief, cells were cultured at a concentration of 2×10^4 cells per well for 44 hours and labeled with bromodeoxyuridine for 4 hours. After centrifugation, supernatant removal, and plate drying, the cells were fixed and the DNA was denatured using FixDenat reagent (Roche Diagnostics). The amount of incorporated bromodeoxyuridine was determined by incubation with a specific antibody conjugated with horseradish peroxidase, followed by colorimetric conversion of the substrate and absorbance evaluation in the ELISA plate reader.
For annexin V expression assay, cells were treated with the ALK inhibitor CEP-28122 (100 nmol/L) for 48 hours or with ALK siRNA (100 pmol/L) for 72 hours. […] The stained cells were analyzed by flow cytometry using a FACSCalibur system (BD Biosciences); data acquisition and analysis were performed using Cell-Quest Pro software (BD Biosciences).

Experiment [3] concerns CD30. The experiment is described as follows: CD30 expression by flow cytometry in NPM-ALK-transformed CD4+ T cells and ALK+ALCL-derived cells. The following applies: 100 nM, FIG. 3B. The experiment is classed as cell-based, human. The procedure:
(§2) The cells were analyzed using FACSCalibur (BD Biosciences) and, for data analysis, CellQuest Pro software version 6.03 (BD Biosciences). For the standard cell-surface staining, 0.5−1.0×10^6 cells were incubated for 20 minutes at 4° C. with 10-20 ul of fluorescein isothiocyanate-conjugated (FITC), phycoerythrin-conjugated (PE), or allophycocyanin-conjugated (APC) standard anti-T- and B-cell antibodies, PD-L1 or isotype control antibody (Bio-Legend, San Diego, Calif.). The intracellular staining was performed by using commercially available fixation and permeabilization reagents (BD Biosciences or Life Technologies, Carlsbad, Calif.). In brief, 0.5−1.0×10^6 washed membrane-stained or unstained cells were fixed for 15 minutes at room temperature with 100 ul of Fix/Per-solution or Fixation medium. After washing the cells were re-suspended in 100 ul of PBS or Permeabilization medium, and incubated for 15 minutes at room temperature with 10-20 ul of PE-labeled ALK or isotype control antibody (BD Biosciences). After additional washing, cells were analyzed by flow cytometry (FACSCalibur; BD Biosciences). Data acquisition and analysis were performed using CellQuest Pro software version 6.03 (BD Biosciences).

The next experiment has as its system PD-L1. The experiment is described as follows: PD-L1 expression by flow cytometry. The experiment is classed as cell-based, human. Conditions: 100 nM; FIG. 3D. As for the experimental part: as §2
(In general: Flow cytometry measures light scatter and fluorescence of single cells or particles in a stream.)

Experiment [4] concerns the target T1, NPM-ALK. Kind of experiment: Western blotting of phosphorylated signaling proteins in NPM-ALK-transformed CD4+ T cells (NA1, NA2) and SUDHL-1. The following applies: NA1, NA2 and control SUDHL-1 cells, 100 nM, FIG. 3A. Further details: expressed in transfected cells; host or cells: Human CD4+ T cells transduced with a lentiviral vector (lines NA1, NA2); The control line SUDHL-1 expresses NPM-ALK endogenously from the translocation; the other entry of the earlier key: NPM1 (P06748, Nucleophosmin). The class given is cell-based. The procedure:
as §1
A mixture of four siRNAs specific for ALK or control siRNAs (all from Dharmacon; Thermo Fisher Scientific, Waltham, Mass.) was introduced into cells using Lipofectamine 2000 as described previously (Marzec et al., 2008, Proc Natl Acad Sci USA 105(52):20852-20857) for SUDHL-1 cells and Nucleofector T-solution (Amaxa; Lonza, Walkersville, Md.) for CD4+ T-cell derived NA1 cells.

For experiment [5], the system named is CD30. Kind of experiment: CD30 expression in ALK-negative T-cell lymphoma line 2A. The experiment is classed as cell-based, human. The following applies: ALK-negative T-cell lymphoma cells (2A); FIG. 3B. The procedure: as §2
A further experiment concerns IL-10. The experiment is described as follows: IL-10 assay. The experiment is classed as cell-based, human. The following applies: 100 nM; FIG. 3C. The procedure:
IL-10 expression was using a Human Cytokine 10-Plex Antibody Bead Kit (Life Technologies) as per manufacturer protocol. Sample acquisition employed a Luminex FlexMAP-3D (Life Technologies), and analyses performed using xPONENT software (version 4.0). A nine-point standard curve at threefold dilutions was employed with the range defined by 80%-120% of expected/observed values. Samples were tested in duplicate and CV was <10%. The results are presented as the decrease in the ALK inhibitor (CEP-28122)-treated cells relative to untreated cells.
Total RNA was extracted (RNeasy kit; Qiagen) and reverse transcribed using High Capacity RNA-to-cDNA kit (ABI). Expression levels of NPM-ALK mRNA were quantified by using an ABI/PRISM 7700 sequence detection system with TaqMan Gene Expression Assay kits (NPM-ALK, Hs03024829; β-actin, Hs9999903) (Life Technologies) and SYBR Green assay (Life Technologies) using primers for IL-10 (5′-AAGGCGCATGTGAACTCC-3′; SEQ ID NO: 1 and 5′-[…]-3′; SEQ ID NO: 2) and for GAPDH (5′-[…]-3′; SEQ ID NO: 3 and 5′-[…]-3′; SEQ ID NO: 4. All assays were performed in duplicate. The fold difference in RNA levels was calculated on the basis of the difference between CT values obtained for control and individual mRNA (ΔCT).

T1 sequence (Q9UM73 with tags, fused parts or gaps): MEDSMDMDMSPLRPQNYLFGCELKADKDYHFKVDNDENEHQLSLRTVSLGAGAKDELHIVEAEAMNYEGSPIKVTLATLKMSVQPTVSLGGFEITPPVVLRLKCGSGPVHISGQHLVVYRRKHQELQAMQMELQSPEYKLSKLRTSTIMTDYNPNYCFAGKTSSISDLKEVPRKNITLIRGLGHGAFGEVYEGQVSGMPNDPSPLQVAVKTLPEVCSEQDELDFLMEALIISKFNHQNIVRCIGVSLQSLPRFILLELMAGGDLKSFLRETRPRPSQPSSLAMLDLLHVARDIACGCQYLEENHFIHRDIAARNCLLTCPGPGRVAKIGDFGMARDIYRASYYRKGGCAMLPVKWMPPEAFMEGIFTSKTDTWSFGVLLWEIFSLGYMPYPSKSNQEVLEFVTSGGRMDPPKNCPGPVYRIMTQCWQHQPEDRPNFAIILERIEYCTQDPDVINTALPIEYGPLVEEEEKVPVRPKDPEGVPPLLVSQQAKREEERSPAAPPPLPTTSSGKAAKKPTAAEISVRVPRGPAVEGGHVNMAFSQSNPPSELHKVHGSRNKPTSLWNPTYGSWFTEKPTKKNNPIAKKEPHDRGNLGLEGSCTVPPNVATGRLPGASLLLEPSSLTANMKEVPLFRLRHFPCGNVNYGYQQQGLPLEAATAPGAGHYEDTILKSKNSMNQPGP

With `COc1c(Nc2ncc(Cl)c(N[C@H]3[C@@H](C(N)=O)[C@@H]4C=C[C@H]3C4)n2)ccc2c1CC[C@@H](N1CCOCC1)CC2` [CEP-28122], the “ALK, STAT3 and S6RP phosphorylation” value on NPM-ALK [1] is “suppress”. The cell growth result is reported as “dose-dependent inhibition” in experiment [2] and “suppressed” in experiment [2] (listed as ALK inhibitor). Also, the entries for the “expression of CD30” value in the experiment with CD30 [3] and with CD30 [3] (listed as ALK inhibitor) were “Suppressive effect” and “diminished”, respectively. The “expression of PDL-1” value with PD-L1 is “Suppressive effect”. The “phosphorylation of cell signaling proteins (ALK, STAT3, S6RP)” value on NPM-ALK [4] is “Suppressive effect”; at NPM-ALK [4] (listed as ALK inhibitor) it was “suppression”. The CD30 expression entry in the experiment with CD30 [5] was “no effect”. Also, the “synthesis of IL-10” value with IL-10 is given as “Suppressive effect”.
